This is an account of results in US8652785B2, “Method of screening a modulator of endothelial NO synthase comprising the use of heme binding protein 1” (Sanofi, priority 2008, dated 2014).

For assay [1], the system named is eNOS promoter. Briefly: eNOS-transcription test (eNOS-promoter luciferase reporter cell line EA.csr03). Type of assay: cell-based. The note with it: Homo sapiens; EA.csr03 cells, nonlinear regression; read-out: EC50 in the eNOS-transcription test. The method, then:
The EA.csr03 cells are cells of a stable eNOS-promoter luciferase cell line. It was obtained by transfection of EA.hy926 cells with a firefly luciferase reporter construct, with a 3.5 kb fragment of the eNOS-promoter added. Cultivation of these cells was carried out with IMDM with GlutaMAX™ I supplemented with 100 U/ml penicillin, 100 μg/ml streptomycin, 10% FCS and 0.4 mg/ml geneticin as selection antibiotic. The EA.hy926 cells are a stable human cell line, which was obtained by fusion of HUVEC with the human […] cell line A549. This cell line is characterized by expression of specific endothelial cell markers, e.g. the “van-Willebrand factor”. The cells used are an original culture of Cora Jean Edgell of passage 32. The cells were cultivated in IMDM with GlutaMAX™ I supplemented with 100 U/ml penicillin, 100 μg/ml streptomycin, HAT Hybri-Max™ medium additive (hypoxanthine, aminopterin and thymidine) and Biotect protective medium.
For transcription test for eNOS promoter activation, 20 000 cells per well of the reporter cell line EA.csr03 were sown in a white 96-well cell culture plate. After 24 hours, various dilutions of the substance in cell culture medium were prepared starting from DMSO stock solutions and were preincubated for 10 min at 37° C. on a water bath. Then these incubation media (100 μl/well) were added to the cells. After incubation for 18 hours, the cells were washed twice with DPBS (100 μl/well) and luciferase lysis buffer (50 μl/well) was added. After 10 min, the solubilized luciferase-substrate luciferin (100 μl/well) was added to the cell lysates. During the luciferase-catalyzed oxidation of luciferin to oxyluciferin there is release of chemiluminescence. […] The light units released were measured in the Genios microplate reader from Tecan Deutschland (Crailsheim, Germany).
On the technique in general: A reporter such as luciferase makes a cellular process visible.

In assay [2] the test system is eNOS promoter. Put plainly: eNOS-transcription test after siRNA transfection of EA.csr03 cells. Type of assay: cell-based, human. The procedure:
For liposomal transfection of siRNA in endothelial cells, EA.hy926 or EA.csr03 cells were sown with a density of 50 000 cells per well in a volume of 100 μl growth medium in 96-well plates. After incubation for 24 h in an incubator, the cells were washed with sterile DPBS and were covered in each case with 100 μl/well of serum-free and antibiotic-free special medium Opti-MEM® I. Then the siRNAs (see below) used were preincubated with Lipofectamine™ 2000 in accordance with the manufacturer's instructions and finally 50 μl/well of the transfection mixture was added to the cells. Unless stated otherwise, the siRNAs were used at final concentrations of 100 nM. Per well, after previous optimization, 0.8 μl of Lipofectamine™ 2000 was used for transfection of the EA.hy926 cells, and 0.5 μl for the EA.csr03 cells. After the cells had been incubated in an incubator for 6 hours, the transfection medium was replaced with normal growth medium and the next experimental steps were carried out in the time frame of 24-72 hours after transfection. Primary HUVECs were sown at 100 000 cells per well in Collagen I-coated 6-well plates and were cultivated in normal growth medium up to 60-70% confluence. Prior to transfection, the cells were washed with sterile DPBS and covered in each case with 800 μl/well of serum-free and antibiotic-free special medium Opti-MEM® I. 6 μl Lipofectin® and siRNA at a final concentration of 100 nM were used per well. […]
The survey of the efficiencies of different siRNAs to the target proteins were tested. The respective residual mRNA was determined by quantitative RT-PCR, 24 hours after transfection of human endothelial cells (EA.hy926/EA.csr03). […] After cell lysis, the luciferase activity and the total cellular protein content were determined.
For transcription test for eNOS promoter activation, 20 000 cells per well of the reporter cell line EA.csr03 were sown in a white 96-well cell culture plate. […] The light units released were measured in the Genios microplate reader from Tecan Deutschland (Crailsheim, Germany). […]

A further assay concerns HEBP1_predicted mRNA. Put plainly: HEBP1_predicted expression in cardiac tissue of rats with chronic heart failure after myocardial infarction. Format: in vivo. The settings on record: 10 mg/kg/day for 9 weeks, versus placebo, mRNA relative to GAPDH. The procedure:
Rats were divided in three groups. One group was sham-operated (group 1), whereas in groups 2 and 3 chronic heart failure was induced by myocardial infarction. Only, the latter group was treated with AVE3085 (10 mg/(kg day)) for 9 weeks. Thereafter, mRNA expression (HEBP1 in comparison to GAPDH) was determined in heart tissue. Means±SD of 7 experiments are shown, * p<0.05 vs. sham operated.
In another context, an animal study was conducted, in which rats developed chronic heart failure after an induced myocardial infarction. From available RNA samples from cardiac tissue it was possible to determine the expression of HEBP1_predicted at the mRNA level. […]
Isolation of RNA from the cell types used was carried out using the RNeasy® mini-isolation method. […] The concentration and purity of the prepared RNA were determined using a NanoDrop® ND-1000 spectrophotometer (NanoDrop Technologies Inc., Wilmington, USA). In this, from a total volume of 2 μl, the absorption of the samples was measured at a wavelength of λ=260 nm (A260) for nucleic acids. Conversion of the measured absorption to the concentration of the RNA solution was carried out by means of the extinction coefficient of 40 ng×cm^−1×μl^−1 on the basis of the Lambert-Beer law. […] The RNA obtained was then diluted in the ratio 1:5 and either used immediately in a quantitative RT-PCR or stored at −80° C. for future use. […]

As for `O=C(NC1Cc2ccccc2C1)c1ccc2c(c1)OC(F)(F)O2` [AVE3085], the EC50 (usually the concentration needed to bring the measured effect to its halfway point) in the assay on eNOS promoter [1] was found to be 0.4 µM. Besides, the “induction of the eNOS promoter versus DMSO-control, HEBP1 switched off using siHEBP1 25” value in the assay on eNOS promoter [2] (AVE3085 5 μM, 18 h, siHEBP1 25) was 1.6 factor. Moreover, the “induction of the eNOS promoter versus DMSO-control, siLV2-treated control cells” value in the assay with eNOS promoter [2] (AVE3085 5 μM, 18 h, siLV2-control) is given as 2.4 factor. In addition, the “reduction of eNOS-promoter activation by AVE3085 after switching-off of HEBP1 by siRNA versus siLV2-control” value with eNOS promoter [2] (HEBP1 siRNA) was determined as 64%. In the assay with HEBP1_predicted mRNA, the “influence of treatment on expression of HEBP1_predicted in heart” value was “did not show any influence at all”.
